One may read the IC50 as the midpoint of a concentration-inhibition curve. Read a low IC50 as greater potency.

Counter-ions that a name gives are not always drawn. Like-named read-outs stand apart in the source and are kept apart here.

Data on 29 compounds can be found in patent US5488055A, “Substituted N-cycloalkylmethyl-1H-pyrazolo(3,4-b)quinolin-4 amines and compositions and methods of use thereof” (Sanofi Winthrop Inc., priority 1995, dated 1996).

The subject of this test is cGMP-PDE V. Description: c-GMP-PDE V inhibitory activity. Format: biochemical, various animal species and man. As for the experimental part: The cGMP-PDE and other PDE isozymes were isolated from cardiovascular tissues (heart and aorta) of various animal species and man by anion-exchange and affinity chromatography as described by Silver et al., Sec. Messeng. Phos. 13:13-25, 1991; PDE activity, in the presence and absence of test compounds was determined essentially as described by Thompson et al., Adv. Cyclic Nucleotide Res. 10:69-92. To determine the potency and selectivity of compounds as PDE inhibitors, compounds are screened for their effect on cyclic nucleotide hydrolysis at 10 μM. […] The IC50 values are calculated from concentration-response curves as described by Tallarida and Murray, Manual of Pharmacologic Calculations with Computer Programs, Procedure 8, Graded Dose-response, pp. 14-19, Springer-Verlag, New York, 1981.

Where [1] appears, read: separate experimental runs, first value.
Setting [2] is: separate experimental runs, second value.

Consider `CCn1ncc2c(NC[C@@H]3CCC[C@H](O)C3)c3cc([N+](=O)[O-])ccc3nc21` (relative stereo) [Example 36(a), 1-ethyl-6-nitro-N-(3-hydroxycyclohexylmethyl)-1 H-pyrazolo[3,4-b]quinolin-4-amine], for which the IC50 came to 10.1 nM.

`CCn1ncc2c(NC[C@@H]3CCC[C@@H](O)C3)c3cc([N+](=O)[O-])ccc3nc21` (relative stereo) [Example 36(b), 1-ethyl-6-nitro-N-(3-hydroxycyclohexylmethyl)-1H-pyrazolo[3,4-b]quinolin-4-amine] displayed an IC50 of 19.3 nM.

As for `CCn1ncc2c(N[C@@H](C)C3CCCCC3)c3cc([S+](C)[O-])ccc3nc21` (single isomer, unassigned) [48(e), 1-ethyl-6-(methylsulfinyl)-N-[S(+)-1-(cyclohexyl)ethyl]-1H-pyrazolo[3,4-b]quinolin-4-amine], the IC50 came out at 7.6 nM.

`CCn1ncc2c(N[C@@H](C)C3CCCCC3)c3cc([S+](C)[O-])ccc3nc21` (single isomer, unassigned) [Example 48(d), 1-ethyl-6-(methylsulfinyl)-N-[S(+)-1-(cyclohexyl)ethyl]-1H-pyrazolo[3,4-b]quinolin-4-amine] showed an IC50 of 4.2 nM.

As to `CCn1nc(C)c2c(NCC3CCCCC3)c3ccccc3nc21` [2(c), 1-ethyl-3-methyl-N-(cyclohexylmethyl)-1H-pyrazolo[3,4-b]quinolin-4-amine hydrochloride], the IC50 came to 82 nM.

Compound `CCn1ncc2c(NCC3CCCCC3)c3cccc(OC)c3nc21` [9(f), 1-ethyl-8-methoxy-N-(cyclohexylmethyl)-1H-pyrazolo[3,4-b]quinolin-4-amine] yielded an IC50 of 610 nM.

Take `c1ccc(Cn2ncc3c(NCC4CCCCC4)c4ccccc4nc32)cc1` [10(d), 1-phenylmethyl-N-(cyclohexylmethyl)-1H-pyrazolo[3,4-b]quinolin-4-amine]: the IC50 turned out to be 260 nM.

`c1ccc2c(NCC3CCCCC3)c3cnn(C4CCCC4)c3nc2c1` [11(e), 1-cyclopentyl-N-(cyclohexylmethyl)-1H-pyrazolo[3,4-b]quinolin-4-amine] returned an IC50 of 150 nM.

In turn, `CCn1ncc2c(NCC3CCCCC3)c3ccc([N+](=O)[O-])cc3nc21` [16(c), 1-ethyl-7-nitro-N-(cyclohexylmethyl)-1H-pyrazolo[3,4-b]quinolin-4-amine] returned an IC50 of 150 nM.

Take `CCn1ncc2c(NCC3CCCCC3)c3ccc(OC)cc3nc21` [18(d), 1-ethyl-7-methoxy-N-(cyclohexylmethyl)-1H-pyrazolo[3,4-b]quinolin-4-amine]: half-maximal inhibition (IC50) was put at 147 nM.

In the case of `CCn1ncc2c(NCC3CCC(O)CC3)c3cc(OC)ccc3nc21` (stereo not shown) [19(d), 1-ethyl-6-methoxy-N-(4-hydroxycyclohexylmethyl)-1H-pyrazolo[3,4-b]quinolin-4-amine], the “Percent Inhibition cGMP-PDE V” value (0.1 μM) was determined as 28%.

The compound `CCn1ncc2c(NCC3CCCCC3)c3cc(NC(C)=O)ccc3nc21` [24(c), 1-ethyl-6-acetamido-N-(cyclohexylmethyl)-1H-pyrazolo[3,4-b]quinolin-4-amine] showed an IC50 of 51 nM.

As to `CCn1ncc2c(NCC3CCC(=O)CC3)c3cc(OC)ccc3nc21` [28(b), 1-ethyl-6-methoxy-N-[4-oxocyclohexylmethyl]-1H-pyrazolo[3,4-b]quinolin-4-amine], the “Percent Inhibition cGMP-PDE V” value is recorded as 0% (0.1 μM), 25% (1 μM) and 79% (10 μM).

`CCn1ncc2c(NCC3CCCCC3)c3cc(C(=O)OC)ccc3nc21` [29(d), 1-ethyl-6-methoxycarbonyl-N-(cyclohexylmethyl)-1H-pyrazolo[3,4-b]quinolin-4-amine] yielded an IC50 of 15 nM.

The compound `CCn1ncc2c(N[C@@H](CO)C3CCCCC3)c3cc([N+](=O)[O-])ccc3nc21` [40(c), 1-ethyl-6-nitro-N-[R-(-)-1-(cyclohexyl)ethanol]-1H-pyrazolo[3,4-b]quinolin-4-amine] had an IC50 of 2.4 nM.

Turning to `CCn1ncc2c(N[C@@H](C)C3CCCCC3)c3cc(C#N)ccc3nc21` [41(c), 1-ethyl-6-cyano-N-[S(+)-(1-cyclohexyl)ethyl]-1H-pyrazolo[3,4-b]quinolin-4-amine], the IC50 worked out at 0.96 nM.

As to `CCn1ncc2c(N[C@@H](C)C3CCCCC3)c3cc(OC)c(OC)cc3nc21` [42(c)], the IC50 amounted to 112 nM.

Turning to `CCn1ncc2c(NCC3CCCCC3)c3cccc(Br)c3nc21` [44(d), 1-ethyl-8-bromo-N-(cyclohexylmethyl)-1H-pyrazolo[3,4-b]quinolin-4-amine], the “Percent Inhibition cGMP-PDE V” value came to 17% (0.01 μM), 20% (0.1 μM) and 70% (1 μM).

For `CCN(CC)S(=O)(=O)c1ccc2nc3c(cnn3C(C)C)c(NCC3CCCCC3)c2c1` [45(d), 1-isopropyl-6-(diethylaminosulfonyl)-N-(cyclohexylmethyl)-1H-pyrazolo[3,4-b]quinolin-4-amine], the IC50 came to 44 nM.

`CCn1ncc2c(N[C@@H](C)C3CCCCC3)c3cc(-c4noc(C)n4)ccc3nc21` [47(c)] registered a concentration for half-maximal inhibition (IC50) of 23 nM.

`CCn1ncc2c(N[C@@H](C)C3CCCCC3)c3cc(S(=O)(=O)C(F)(F)F)ccc3nc21` [53(c), 1-ethyl-6-(trifluoromethylsulfonyl)-N-[S (+)-1-(cyclohexyl)ethyl]-1H-pyrazolo[3,4-b]quinolin-4-amine] gave an IC50 of 5.4 nM.

For `CCn1ncc2c(NCC3CCC(C(=O)OC)CC3)c3ccccc3nc21` (stereo not shown) [Example 3, 1-ethyl-N-[(4-methoxycarbonylcyclohexyl)methyl]-1H-pyrazolo[3,4-b]quinolin-4-amine], the IC50 is 300 nM.

Compound `CCn1ncc2c(NCC3CC3)c3ccccc3nc21` [Example 4, 1-ethyl-N-(cyclopropylmethyl)-1H-pyrazolo[3,4-b]quinolin-4-amine] showed an IC50 of 3000 nM.

Turning to `CCn1ncc2c(NCC3CCC(C(=O)OCSC)CC3)c3ccccc3nc21` (stereo not shown) [Example 5, 1-ethyl-N-[[4-(methylthiomethoxycarbonyl)cyclohexyl]methyl]-1H-pyrazolo[3,4-b]quinolin-4-amine], the “Percent Inhibition cGMP-PDE V” value worked out at 4% (0.1 μM), 34% (1 μM) and 81% (10 μM).

In turn, `CCn1ncc2c(NCC3CCCCC3)c3cc(OCCN(C)C)ccc3nc21` [Example 12] gave an IC50 of 240 nM.

The compound `CCn1ncc2c(NCC3CCCCC3)c3cc(N)ccc3nc21` [Example 20, 1-ethyl-6-amino-N-(cyclohexylmethyl)-1H-pyrazolo[3,4-b]quinolin-4-amine] yielded an IC50 of 300 nM.

Regarding `CCn1ncc2c(NCC3CCCCC3)c3ccc(N)cc3nc21` [Example 25, 1-ethyl-7-amino-N-(cyclohexylmethyl)-1H-pyrazolo[3,4-b]quinolin-4-amine], the “Percent Inhibition cGMP-PDE V” value (0.1 μM) is on record as 7%, the “Percent Inhibition cGMP-PDE V” value (1 μM) was determined as 68% and the “Percent Inhibition cGMP-PDE V” value (10 μM) was 95%.

With `CCn1ncc2c(N[C@@H](C)C3CCCCC3)c3cc(OC)ccc3nc21` [Example 26, 1-ethyl-6-methoxy-N-[S(+)-1-(cyclohexyl)ethyl]-1H-pyrazolo[3,4-b]quinolin-4-amine], the IC50 is, setting by setting: under setting [1], 2.6 nM; under setting [2], 5.2 nM.

As for `CCn1ncc2c(N[C@H](C)C3CCCCC3)c3cc(OC)ccc3nc21` [Example 27, 1-ethyl-6-methoxy-N-[R(-)-1-(cyclohexyl)ethyl]-1H-pyrazolo[3,4-b]quinolin-4-amine], the IC50 is, setting by setting: under setting [1], 340 nM; under setting [2], 210 nM; (separate experimental runs, third value) 266 nM.
